# Test results from patent US12409174B2, “Combination of zibotentan and dapagliflozin for the treatment of endothelin related diseases” (priority 2020, dated 2025).
# Like-named read-outs stand apart in the source and are kept apart here.
# Columns and labels:
# [1] = test system: patients with CKD with and without type 2 diabetes; settings: dapagliflozin 10 mg
# Description: The effect of dapagliflozin on albuminuria was investigated in patients with CKD with and without type 2 diabetes. In this analysis from the Phase 3 DAPA CKD trial, the efficacy of dapagliflozin was assessed to determine whether treatment with dapagliflozin reduces the level of albuminuria in patients with CKD.
# In the trial, 4304 patients with estimated glomerular filtration rate 25-75 mL/min/1·73 m2 and urinary UACR 200-5000 mg/g were randomized to dapagliflozin (10 mg) or placebo. Change in albuminuria was assessed as the mean change in log-transformed UACR from baseline to end of study. Regression in UACR stage, defined as a transition from macroalbuminuria (≥300 mg/g) to micro- or normoalbuminuria (<300 mg/g), and progression in UACR stage, defined as a transition from <3000 mg/g to ≥3000 mg/g, were additional endpoints.
# [2] = Effect of zibotentan on body weight, Experiment 1; assay type: in vivo, male Wistar rats; settings: Exp 1; for Body weight, Difference in means vs Vehicle: log scale, linear mixed effects model
# Description: (§1) In the first experiment (Experiment 1), the effect of zibotentan on haematocrit (Hct) concentration was determined when zibotentan was administered peroral (p.o) QD for 14 days. […] Animals were weighed daily prior to dosing throughout the experiment. Blood samples (20 μL) for bioanalysis were taken at 4 and 24 hr after the first dose via the tail vein from conscious animals and 24 hr after the last dose via retroorbital route from anesthetized animals. Blood samples were collected via tail vein (100 μL) for Hct concentration and haemoglobin (Hb) measurements, on day 7 and on day 14, 1-2 hr after dosing. Twenty-four hour urine was collected for the measurement of urinary glucose, urine volume and electrolytes between doses nine and ten. Animals were terminated 24 hr after the last dose. On the day of termination, animals were anesthetized using 5% isoflurane, and blood was collected via the retroorbital route (in heparin-coated microvette, Sarsted) and centrifuged at 3,500 rpm at 4° C. for 10 minutes, plasma was collected and stored at −80° C. degrees prior to analysis. Animals were then euthanized by the removal of the heart. Both the heart and the kidneys were extracted and weighed. From the right kidney, a 4 mm thick slice of tissue was collected and fixed in 4% formaldehyde for subsequent histological analysis and a piece of cortical kidney tissue and heart tissue was collected for gene expression analysis.
# (§2) Significance was set at p<0.05.
# [3] = test system: male Wistar rats on 4% salt diet; test: Effect of zibotentan on kidney and heart weight, Experiment 1; assay type: in vivo
# Description: as §1, §2
# [4] = Zibotentan blood concentrations, Experiment 1; assay type: in vivo, male Wistar rats; settings: male, Wistar, rat, whole blood, oral, Exp 1; for concentration at 4 h: 4 hr post first dose
# Description: as §1
# A volume of 20 μL whole blood was precipitated with 150 μL acetonitrile containing internal standard and quickly vortexed, followed by a 20 min centrifugation at 3220 g and 4° C. […] Zibotentan samples were further diluted twice and three times at a 1:10 ratio with 33% acetonitrile, to ensure all diluted samples were detectible within the calibration range.
# Sample concentrations were determined against matrix-spiked calibration standards over a range of 0.010 μM-10.0 μM for dapagliflozin and 0.75 μM-376 μM for zibotentan, applying weighted linear regression (1/X^2) using Waters TargetLynx software version XS V4.2 SCN986. […] Analytical bias was <15% over the concentration range for both analytes.
# Separation was achieved using the following elution gradient: 0 min to 1.5 min, 4% B ramping up to 95% B; 1.5 min to 2.3 min, kept at 95% B; 2.3 min to 2.4 min, 95% B to 4% B and kept at 4% B until 2.7 min. The flow rate was 0.7 mL/min.
# [5] = test system: male Wistar rats on 4% salt diet; test: Effect of zibotentan on plasma Na, K, glucose and urea, Experiment 1; assay type: in vivo; settings: Exp 1
# Description: as §1
# Plasma and Urine Albumin, Creatinine, Glucose, Urea, Potassium and Sodium levels were analyzed using an ABX Pentra 400 instrument (Horiba Medical, Irvine, California, USA) according to the manufacturers protocol.
# as §2
# [6] = test system: male Wistar rats on 4% salt diet; test: Effect of zibotentan on Hb, Experiment 1; assay type: in vivo; settings: Exp 1
# Description: as §1
# For Hct and Hb analysis, 100 μl of blood from rat's tail vein was collected and measured using CG8 cartridges analysed with an iSTAT instrument (Abbott Point of Care Inc, Abbot Park, IL, USA).
# as §2
# [7] = Exp 1, Zibo 30 mg/kg p.o. QD 14 days
# [8] = Exp 1, Zibo 100 mg/kg p.o. QD 14 days
# [9] = Exp 1, Zibo 300 mg/kg p.o. QD 14 days
# [10] = Exp 1, zibotentan 100 mg/kg, 14 days
smiles,measurement,setting,value
"CCOc1ccc(Cc2cc([C@@H]3O[C@H](CO)[C@@H](O)[C@H](O)[C@H]3O)ccc2Cl)cc1 [Dapa, (1S)-1,5-anhydro-1-{4-chloro-3-[(4-ethoxyphenyl)methyl]phenyl}-D-glucitol]","Progression in UACR stage, hazard ratio","[1]; 3820 patients with UACR<3000 mg/g at baseline, 95% CI 0.32-0.52",0.41
same,"Regression in UACR stage, hazard ratio","[1]; 3860 patients with UACR≥300 mg/g at baseline, 95% CI 1.60-2.05",1.81
same,UACR reduction compared to placebo,"[1]; CKD patients with and without type 2 diabetes, baseline to end of study, 95% CI 25.2-33.1%",29.3%
same,UACR reduction compared to placebo,"[1]; CKD patients with type 2 diabetes, 95% CI 30.6-39.4%",35.1%
same,UACR reduction compared to placebo,"[1]; CKD patients without type 2 diabetes, 95% CI 5.9-22.9%",14.8%
"COc1nc(C)cnc1NS(=O)(=O)c1cccnc1-c1ccc(-c2nnco2)cc1 [Zibo, N-(3-methoxy-5-methylpyrazin-2-yl)-2-[4-(1,3,4-oxadiazol-2-yl)phenyl]pyridine-3-sulfonamide]","Body weight, Difference in means vs Vehicle",[2]; Zibo 30 mg/kg p.o. QD 14 days,0.02
same,"Body weight, Difference in means vs Vehicle",[2]; Zibo 100 mg/kg p.o. QD 14 days,0.02
same,"Body weight, Difference in means vs Vehicle",[2]; Zibo 300 mg/kg p.o. QD 14 days,0.01
same,Body weight change compared to vehicle,"[2]; zibotentan 30, 100 and 300 mg/kg",no difference
same,Kidney/tibia length,[3],54.00 ± 0.80 mg/mm
same,Heart weight,[3]; [7],1.00 ± 0.02 g
same,Heart/tibia length,[3]; [7],25.00 ± 0.47 mg/mm
same,Kidney weight,[3]; [7],2.13 ± 0.04 g
same,Heart weight,[3]; [8],1.05 ± 0.01 g
same,Heart/tibia length,[3]; [8],27.00 ± 0.37 mg/mm
same,Kidney weight,[3]; [8],2.16 ± 0.05 g
same,Kidney/tibia length,[3]; [8],55.0 ± 1.65 mg/mm
same,Heart weight,[3]; [9],0.98 ± 0.00 g
same,Heart/tibia length,[3]; [9],25.00 ± 0.24 mg/mm
same,Kidney/tibia length,[3]; [9],57.0 ± 1.39 mg/mm
same,Heart weight compared to vehicle,[3]; [10],increase
same,Heart weight increase after normalizing with tibia length,[3]; [10],not statistically significant
same,Kidney weight with or without normalizing with tibia length compared to vehicle,"[3]; Exp 1, zibotentan 300 mg/kg, 14 days",increase
same,concentration at 24 h,"[4]; 30 mg/kg, Zibo 30 mg/kg p.o. QD 14 days, 24 hr post last dose",7.39 ± 10.4 µM
same,concentration at 4 h,"[4]; 30 mg/kg, Zibo 30 mg/kg p.o. QD",53.8 ± 17.4 µM
same,concentration at 24 h,"[4]; 30 mg/kg, Zibo 30 mg/kg p.o. QD, 24 hr post first dose",4.68 ± 3.93 µM
same,concentration at 24 h,"[4]; 100 mg/kg, Zibo 100 mg/kg p.o. QD 14 days, 24 hr post last dose",39 ± 32.4 µM
same,concentration at 4 h,"[4]; 100 mg/kg, Zibo 100 mg/kg p.o. QD",134 ± 43.8 µM
same,concentration at 24 h,"[4]; 100 mg/kg, Zibo 100 mg/kg p.o. QD, 24 hr post first dose",39.1 ± 38.1 µM
same,concentration at 24 h,"[4]; 300 mg/kg, Zibo 300 mg/kg p.o. QD 14 days, 24 hr post last dose",249 ± 193 µM
same,concentration at 4 h,"[4]; 300 mg/kg, Zibo 300 mg/kg p.o. QD",247 ± 46 µM
same,concentration at 24 h,"[4]; 300 mg/kg, Zibo 300 mg/kg p.o. QD, 24 hr post first dose",176 ± 108 µM
same,Plasma Glucose,[5]; Zibo 30 mg/kg p.o. QD 14 days,9.76 ± 0.28 mmol/L
same,Plasma K,[5]; Zibo 30 mg/kg p.o. QD 14 days,4.50 ± 0.06 mmol/L
same,Plasma Na,[5]; Zibo 30 mg/kg p.o. QD 14 days,137.0 ± 0.96 mmol/L
same,Plasma Urea,[5]; Zibo 30 mg/kg p.o. QD 14 days,4.64 ± 0.20 mmol/L
same,Plasma Glucose,[5]; Zibo 100 mg/kg p.o. QD 14 days,9.65 ± 0.30 mmol/L
same,Plasma K,[5]; Zibo 100 mg/kg p.o. QD 14 days,4.52 ± 0.06 mmol/L
same,Plasma Na,[5]; Zibo 100 mg/kg p.o. QD 14 days,137.2 ± 0.97 mmol/L
same,Plasma Urea,[5]; Zibo 100 mg/kg p.o. QD 14 days,4.77 ± 0.25 mmol/L
same,Plasma Glucose,[5]; Zibo 300 mg/kg p.o. QD 14 days,9.34 ± 0.13 mmol/L
same,Plasma K,[5]; Zibo 300 mg/kg p.o. QD 14 days,4.76 ± 0.09 mmol/L
same,Plasma Na,[5]; Zibo 300 mg/kg p.o. QD 14 days,139.4 ± 0.86 mmol/L
same,Plasma Urea,[5]; Zibo 300 mg/kg p.o. QD 14 days,4.94 ± 0.39 mmol/L
same,"Level of Na, K, glucose and urea in the plasma compared to vehicle",[5]; different doses of zibotentan,no change
same,Day 7 Hb,[6]; Zibo 30 mg/kg p.o. QD,146.4 g/L
same,Day 14 Hb,[6]; Zibo 30 mg/kg p.o. QD,156.8 g/L
same,Day 7 Hb,[6]; Zibo 100 mg/kg p.o. QD,141.5 g/L
same,Day 14 Hb,[6]; Zibo 100 mg/kg p.o. QD,148.5 g/L
same,Day 7 Hb,[6]; Zibo 300 mg/kg p.o. QD,143.2 g/L
same,Day 14 Hb,[6]; Zibo 300 mg/kg p.o. QD,150.3 g/L
same,Hb compared to vehicle,"[6]; zibotentan 30, 100 and 300 mg/kg, day 7",significant decrease
same,Hb compared to vehicle,"[6]; zibotentan 100 and 300 mg/kg, day 14",significant decrease
